According to patent US20060142397A1, “Use of a pparalpha agonist and metormin for decreasing the serum triglycerides” (priority 2002, published 2006):
Read-outs that look alike come from different tables or passages of the source. Marks after values point to notes of the source that are not given here.

Legend:
db/db mice = details: for Triglycerides % var. T0/T15: 14 days gavage; for Triglycerides T0: T0 (baseline); for Triglycerides T0 / Triglycerides T15: mean ± SEM; for Triglycerides T15: T15 after 14 days gavage
Description: Studies were designed to evaluate the effects of fenofibrate, a PPARα agonist, and metformin as a combination therapy, on triglycerides level in db/db mice.
Male 11/12 weeks old […] J Rj-db (db/db) mice (Janvier, France) were housed in a temperature (19.5-24.5° C.), relative humidity (40-70%) and 12-12 h light-dark cycle (light 7:00 a.m. to 7:00 p.m.)-controlled room, with ad libitum access to filtered (0.22 μm) tap-water and irradiated pelleted laboratory chow (ref. A04, U.A.R., France) throughout the study. They were housed 5 per cage and a 21-day acclimatization period was observed.
The mice were treated during 14 consecutive days (T1 to T14), with morning and afternoon gavages with the various treatments as described below.
At T15, the mice were weighed and blood samples collected without anticoagulant by retro-orbital puncture under CO2/O2 anesthesia.
Triglycerides were measured at T0 and T15 using the multi-parametric analyzer.
Veh/Veh=Vehicle in morning/Vehicle in the afternoon
A300/Veh=metformin, 300 mg/kg in the morning/Vehicle in the afternoon
B100/B100=fenofibrate, 100 mg/kg in the morning/fenofibrate, 100 […]
A300B100/B100=metformin, 300 mg/kg in the morning, and fenofibrate, 100 mg/kg in the morning/fenofibrate, 100 mg/kg in the afternoon
A100/Veh=metformin, 100 mg/kg in the morning/Vehicle in the afternoon
B30/B30=fenofibrate, 30 mg/kg in the morning/fenofibrate, 30 mg/kg in the afternoon
A100B30/B30=metformin, 100 mg/kg in the morning, and fenofibrate, 30 mg/kg […]/fenofibrate, 30 mg/kg in the afternoon

ob/ob mice = details: for Serum triglycerides T0 + 10: after 10 days of treatment once a day, 100 mg/kg of each drug; for Serum triglycerides T0 + 10 / Serum triglycerides T0: mean ± sem, n=10; for Serum triglycerides T0: beginning of study (T0, baseline), groups later treated once a day with 100 mg/kg of each drug
Description: Studies were designed to evaluate the effects of fenofibrate, a PPARα agonist, and metformin as a combination therapy, on triglycerides level in ob/ob mice.
Male homozygous C57BL/Ks/Ola/Hsd/lep ob/ob mice were stabilized for 2 weeks in the animal facilities in a temperature-, humidity- and light-controlled room (21-23° C., 12-12 h light-dark cycle). […] After acclimatization, they were randomized into groups of 10 based on body weight, as follows:
Met 100=mice treated once a day with metformin, 100 mg/kg
Feno 100=mice treated once a day with fenofibrate, 100 mg/kg
Feno100-Met100=mice treated once a day with fenofibrate, 100 mg/kg and metformin, 100 mg/kg.
Serum triglycerides (expressed in g/l) were measured at the beginning and the end of the study for each group.
Statistics: All data were subjected to covariance analysis followed by Tukey test.

Zucker rats = details: obese Zucker rats, 30 days, fenofibrate 30 mg/kg p.o. once daily and/or metformin 150 mg/kg p.o. twice daily; for Body weight gain: mean ± SEM, n=8
Description: Studies were designed to evaluate the effects of fenofibrate, a PPARα agonist, and metformin as a combination therapy, on body weight in Zucker rats.
Male homozygous Zucker rats of 9 to 11 weeks of age and their lean controls were randomised into groups of 8, based on body weight and fasting plasma insulin levels.
The experimental groups were: • Lean rats, untreated; • Obese rats, treated with the vehicle p.o., twice daily • Obese rats, treated with Fenofibrate, 30 mg/kg, p.o., once daily • Obese rats, treated with Metformin, 150 mg/kg, p.o., twice daily • Obese rats, treated with Fenofibrate, 30 mg/kg, p.o., once daily and metformin, 150 mg/kg, p.o., twice daily.
Body weight was recorded every day during 30 days.

[1] = metformin 100 mg/kg morning and/or fenofibrate 30 mg/kg twice daily
[2] = metformin 300 mg/kg morning and/or fenofibrate 100 mg/kg morning and afternoon
[3] = high-dose groups: metformin 300 mg/kg morning and/or fenofibrate 100 mg/kg morning and afternoon
[4] = low-dose groups: metformin 100 mg/kg morning and/or fenofibrate 30 mg/kg twice daily

## CC(C)OC(=O)C(C)(C)Oc1ccc(C(=O)c2ccc(Cl)cc2)cc1 [Fenofibrate, fenofibrate]
db/db mice; [1]
  Triglycerides % var. T0/T15: −42.3* %
  Triglycerides T15: 0.97 ± 0.08 g/L
db/db mice; [2]
  Triglycerides % var. T0/T15: −53.5* %
  Triglycerides T15: 0.85 ± 0.08 g/L
db/db mice; [3]
  Triglycerides T0: 1.89 ± 0.13 g/L
db/db mice; [4]
  Triglycerides T0: 1.72 ± 0.12 g/L
ob/ob mice
  Serum triglycerides T0 + 10: 0.69 ± 0.03 g/L
  Serum triglycerides T0: 0.72 ± 0.06 g/L
Zucker rats
  Body weight gain (% of change vs vehicle treated group): −26%
  Body weight gain: 52.0 ± 5.8 g

## CN(C)C(=N)N=C(N)N [Metformin, metformin]
db/db mice; [1]
  Triglycerides % var. T0/T15: 7.3° %
  Triglycerides T15: 1.79 ± 0.16° g/l
db/db mice; [2]
  Triglycerides % var. T0/T15: −3.3° %
  Triglycerides T15: 1.67 ± 0.06 g/L
db/db mice; 14 days treatment
  Effect on triglycerides level (in words): no reduction in triglycerides level
db/db mice; [3]
  Triglycerides T0: 1.81 ± 0.14 g/L
db/db mice; [4]
  Triglycerides T0: 1.68 ± 0.12 g/L
ob/ob mice; 10 days, 100 mg/kg once a day
  Effect on triglycerides level (in words): no effects
ob/ob mice
  Serum triglycerides T0 + 10: 0.74 ± 0.04 g/L
  Serum triglycerides T0: 0.68 ± 0.03 g/L
Zucker rats
  Body weight gain (% of change vs vehicle treated group): −5%
  Body weight gain: 67.2 ± 4.0 g
